# In patent publication US12054744B2, “NK cells exhibiting an adaptive phenotype and methods for preparing and for using” (Regents of the University of Minnesota, priority 2015, dated 2024):
# B1: catalase: ROS scavenger catalase (Sigma-Aldrich), 200 IU/mL (protein, UniProt P00432 2-527, looked up)
# Catalase: ADNRDPASDQMKHWKEQRAAQKPDVLTTGGGNPVGDKLNSLTVGPRGPLLVQDVVFTDEMAHFDRERIPERVVHAKGAGAFGYFEVTHDITRYSKAKVFEHIGKRTPIAVRFSTVAGESGSADTVRDPRGFAVKFYTEDGNWDLVGNNTPIFFIRDALLFPSFIHSQKRNPQTHLKDPDMVWDFWSLRPESLHQVSFLFSDRGIPDGHRHMNGYGSHTFKLVNANGEAVYCKFHYKTDQGIKNLSVEDAARLAHEDPDYGLRDLFNAIATGNYPSWTLYIQVMTFSEAEIFPFNPFDLTKVWPHGDYPLIPVGKLVLNRNPVNYFAEVEQLAFDPSNMPPGIEPSPDKMLQGRLFAYPDTHRHRLGPNYLQIPVNCPYRARVANYQRDGPMCMMDNQGGAPNYYPNSFSAPEHQPSALEHRTHFSGDVQRFNSANDDNVTQVRTFYLKVLNEEQRKRLCENIAGHLKDAQLFIQKKAVKNFSDVHPEYGSRIQALLDKYNEEKPKNAVHTYVQHGSHLSAREKANL
# What was measured:
# Format in all cases: cell-based, human
# CD155 on monocytes = test: ROS induction in monocytes by H2O2, staining for ROS, CD112 and CD155; conditions: H2O2 250 μM
# Method: (§1) MDSCs were induced from healthy blood donor PBMC with IL-6 (10 ng/mL) and GM-CSF (10 ng/mL) for 7 days, bead-depleted for HLA-DR, and enriched for CD33. FIG. 13A. MDSCs and freshly isolated monocytes were stained for the antigens shown. One representative example from independent experiments is shown. FIG. 13B. Induced MDSCs were stained for CD155 and analyzed by flow cytometry following overnight treatment with superoxide dismutase (SOD, 200 IU/mL), arginase inhibitor (a-ARG, arginase inhibitor N(ω)-hydroxy-nor-L-arginine, 500 μM), ROS scavenger (Catalase, 200 international units per milliliter (IU/mL)), blocking antibodies against TGF-β (10 μg/mL), iNOS inhibitor (aiNOS, NG-monomethyl-1-arginine, 500 micromolar (μM)), or left untreated. Pooled (n=4) data is shown as mean±SEM, and statistical analysis were done using the Student's t-test. FIG. 13C. Unstimulated monocytes and MDSCs were stained for total ROS and analyzed by flow cytometry. FIG. 13D. Unstimulated or H2O2 (250 μM) monocytes and unstimulated MDSCs were stained for total ROS, CD112, and CD155 and analyzed by flow cytometry. Cells double positive for ROS and CD112 or CD155 are shown. One representative donor of six is shown. One representative isotype control is shown for all groups for simplicity as individual controls were similar between conditions. […]
# [1] = system: PLZF expression in cord blood-derived CD56^dim NK cells; test: Intracellular PLZF staining of cord blood-derived CD56^dim NK cells after 14 days in culture; conditions: high-dose IL-15, IL-21 where added
# Method: FIG. 6A. FACS plots of intracellular PLZF expression in cord blood-derived CD56^dim NK cells from a representative donor after 14 days in the indicated culture conditions. FIG. 6B. Cumulative data showing the percentage of PLZF″ NK cells after 14 days in each culture condition from 6 donors. Two independent experiments were performed. Error bars represent SEM.
# Mononuclear cells were isolated from whole cord blood by density gradient centrifugation. T cells and B cells were depleted by positive magnetic selection using anti-CD3 and anti-CD19 microbeads, respectively. CD3/CD19-depleted cells were then added to irradiated OP9 cells at a concentration of 5×10^5 cells/well and cultured for 14 days in RPMI media+10% FBS supplemented with either 1 ng/mL IL-15 or 10 ng/mL IL-15 with or without 50 ng/mL IL-21.
# Cord blood-derived NK cells were analyzed before culture and after 7 and 14 days of culture by fluorescence activated cell sorting (FACS) using the following extracellular and intracellular antibodies: BV785-conjugated anti-CD3 (BioLegend, San Diego, CA), PE-Cy7-conjugated anti-CD56 (BioLegend, San Diego, CA), BV605-conjugated anti-CD57 (BioLegend, San Diego, CA), APC-conjugated SYK (eBioscience, San Diego, CA), and PE-conjugated anti-PLZF (BD Biosciences, San Jose, CA).
# Transcriptional silencing of the transcription factor promyelocytic leukemia zinc finger (PLZF) is a hallmark of adaptive NK cells that expand in response to CMV infection (Schlums et al. Immunity. 2015; 42(3):443-456). Intracellular staining for PLZF was performed in NK cells from freshly isolated mononuclear cells and from cells that were cultured for 14 days in vitro. Freshly isolated CD56^dimSYK^− NK cells from cord blood were predominantly PLZF-positive (99.3%±0.10). […] Therefore, IL-21 drives down PLZF expression in CD56^dimSYK^− NK cells, causing these cells to acquire adaptive characteristics (FIG. 6).
# pZAP70/Syk and pERK1/2 = test: Phosflow of pZAP70/Syk and pERK1/2 in NK cells co-cultured with MDSCs; conditions: NK cells co-cultured with MDSCs 5 days; anti-TIGIT 10 ug/mL or catalase 200 IU/mL; anti-CD16 stimulation
# Method: (§2) Purified NK cells from healthy blood donors were co-cultured with autologous MDSCs or freshly isolated monocytes at a 2:1 ratio in the presence of IL-15 (10 ng/mL) and in the presence or absence of blocking antibodies against TIGIT (10 μg/mL), or catalase (200 IU/mL) for 5 days. Cells were then washed, rested for 4 hours, stimulated for 10 and 30 min with anti-CD16, and stained for pZAP/Syk or pERK1/2 respectively. Representative (FIG. 14A) or cumulative (FIG. 14B) data are shown from 3 independent experiments as mean±SEM. Statistical analysis was done using the Student's t-test. FIG. 14C. NK cells from monocyte and MDSC co-cultures in the presence or absence of anti-TIGIT or catalase were washed and incubated with 51 Cr-labeled K562 for 4 hours to assess NK cell cytotoxicity. Representative data from 3 independent experiments is shown as mean±SEM.
# Given the strong suppressive effect of TIGIT engagement on conventional NK cell function and proliferation, the CD16 induced signaling interaction with TIGIT in NK cells co-cultured with MDSC was analyzed. […] To investigate whether blocking TIGIT or ROS could recover the function of NK cells cultured with MDSCs in cytotoxicity assays, NK cells were cultured with either monocytes or MDSCs were pre-treated with TIGIT blockade or catalase, washed, and then incubated with 51 Cr-labeled K562 cells. […]
# K562 = test: Chromium (51Cr) release assay against K562; conditions: anti-TIGIT 10 ug/mL or catalase 200 IU/mL
# Method: as §2, with “NK cells from monocyte and MDSC co-cultures in the presence or absence of anti-TIGIT or catalase were washed and incubated with 51 Cr-labeled K562 for 4 hours to assess NK cell cytotoxicity. Representative data from 3 independent experiments is shown as mean±SEM.” left out
# Given the strong suppressive effect of TIGIT engagement on conventional NK cell function and proliferation, the CD16 induced signaling interaction with TIGIT in NK cells co-cultured with MDSC was analyzed. […]
# Following 5 days of co-culture with monocytes or MDSCs in the presence or absence of blocking antibodies against TIGIT (10 ug/mL) or ROS scavenger catalase (200 IU/mL), NK cell cytotoxicity was analyzed by chromium (51 Cr) release assays (4 hours) against K562 (ATCC, Manassas, VA) cells at a 5:1-2.5:1 effector:target ratios. 51 Cr release was measured by a γ scintillation counter (Perkin Elmer, Waltham, MA), and specific target lysis was determined.
# CD155 on MDSCs = test: CD155 staining of induced MDSCs after overnight treatment with inhibitors of MDSC pathways; conditions: catalase 200 IU/mL overnight
# Method: as §1, with “FIG. 13C.” left out, “FIG. 13D.” left out, “cytometry.” for “cytometry. Cells double positive for ROS and CD112 or CD155 are shown. One representative donor of six is shown. One representative isotype control is shown for all groups for simplicity as individual controls were similar between conditions.”
# Purified NK cells or MDS PBMC (FIG. 17) cultured with monocytes or MDSCs for different time points and with different stimuli were resuspended in staining buffer (PBS containing 0.5% human AB serum) and stained with fluorochrome-conjugated antibodies (Table IV). […] All cells were acquired by LSRII and analyzed by FlowJo. […]
molecule,measurement,setting,value
OO [H2O2],expression of CD155 in ROS^+ monocytes,CD155 on monocytes,induce the expression of CD155
IL-21: cytokine added at 50 ng/mL to IL-15 cultures,decrease in PLZF expression (percentage of PLZF-negative NK cells),[1]; CD56^dimCD57^+SYK^+ NK cells,12.13%±2.43
same,decrease in PLZF expression (percentage of PLZF-negative NK cells),[1]; CD56^dimCD57^+SYK^− NK cells,66.0%±8.86
same,decrease in PLZF expression (percentage of PLZF-negative NK cells),[1]; CD56^dimCD57^−SYK^+ NK cells,14.92%±1.80
same,decrease in PLZF expression (percentage of PLZF-negative NK cells),[1]; CD56^dimCD57^−SYK^− NK cells,35.82%±7.02
B1,phosphorylation of ZAP70/Syk and ERK1/2,pZAP70/Syk and pERK1/2,increased the phosphorylation
same,"NK cell cytotoxicity against K562, NK cells cultured alone",K562,Neither anti-TIGIT nor catalase had any effect
same,NK cell cytotoxicity against K562 after co-culture with MDSCs,"K562; 5 days, 4 hours 51Cr release",completely reversed the suppressive effect
same,decrease in the expression of CD155 on MDSCs,CD155 on MDSCs,55%±23
